According to PubChem BioAssay (NCI):
Several values for one entry are separate records, joined by “and”; a condition that tells them apart may be missing. Equal entries are not always repeated.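 1) Cells in 96-well plates. 2) Compound, 48 h, 5 concentrations. 3) Linear interpolation between surrounding doses. 4) Unreached endpoint = highest concentration. Abbreviation: GI50, concentration required for 50% inhibition of growth. TGI: concentration producing complete growth inhibition.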

What was measured:
Experiment in all cases: inhibition of tumour cell growth, NCI panel, 48 h
SNB-19 CNS = test system: SNB-19 CNS
MDA-MB-435 = test system: MDA-MB-435
SR leukemia = test system: SR leukemia
NCI-H460 lung = test system: NCI-H460 lung
HS 578T breast = test system: HS 578T breast
EKVX NSCLC = test system: EKVX NSCLC
SF-539 CNS = test system: SF-539 CNS
ACHN renal = test system: ACHN renal
COLO 205 colon = test system: COLO 205 colon
SNB-75 CNS = test system: SNB-75 CNS

| Compound | GI50 (SNB-19 CNS) [µM] | TGI (SNB-19 CNS) [µM] | GI50 (MDA-MB-435) | TGI (MDA-MB-435) | GI50 (SR leukemia) | TGI (SR leukemia) | GI50 (NCI-H460 lung) [µM] | TGI (NCI-H460 lung) [µM] | GI50 (HS 578T breast) | TGI (HS 578T breast) | GI50 (EKVX NSCLC) [µM] | TGI (EKVX NSCLC) [µM] | GI50 (SF-539 CNS) | TGI (SF-539 CNS) | GI50 (ACHN renal) | TGI (ACHN renal) | GI50 (COLO 205 colon) | TGI (COLO 205 colon) | GI50 (SNB-75 CNS) | TGI (SNB-75 CNS) |
| --- | --- | --- | --- | --- | --- | --- | --- | --- | --- | --- | --- | --- | --- | --- | --- | --- | --- | --- | --- | --- |
| CC1OC(OC2C(O)CC(OC3C(O)CC(OC4CCC5(C)C(CCC6C5CC(O)C5(C)C(C7=CC(=O)OC7)CCC65O)C4)OC3C)OC2C)CC(O)C1O (stereo not given) | 0.113 | 0.238 | 0.134 µM | 0.318 µM | 24.4 nM | 0.0897 µM | 0.0305 | 0.088 | 0.042 µM | 2.3 µM | 0.0351 | 0.121 | 0.0427 µM | 0.15 µM | 0.0358 µM | 0.126 µM | 0.131 µM | 0.272 µM | 0.0765 µM | 0.241 µM |
| CC(=O)NCc1cccc(C#Cc2cncnc2Nc2ccc(OCc3cccc(F)c3)c(Cl)c2)c1 | > 21.8 | > 25 | 8.41 µM | > 25 µM | > 25000 nM | > 25 µM | 10.6 | > 25 | > 22.4 µM | > 25 µM | 1.46 | > 14.8 | > 21.1 µM | > 25 µM | 5.84 µM | > 25 µM | > 16.7 µM | > 25 µM | > 21 µM | > 25 µM |
| CC(C)(O)CNc1nc(Nc2ccnc(C(F)(F)F)c2)nc(-c2cccc(C(F)(F)F)n2)n1 | 34.4 | > 100 | 15.8 µM | 39.9 µM | 18300 nM | 90.9 µM | 23.8 | 60.8 | 27.8 µM | 75.9 µM | 21.4 | 64.1 | 16.6 µM | 42.7 µM | 23.5 µM | 66.7 µM | 18.4 µM | 38.7 µM | 15.9 µM | 42.7 µM |
| COC(=O)c1cncc(/C=C/c2c(C)cc(O)cc2C)c1 | > 21.9 | > 25 | 3.42 µM | 11.7 µM | 2670 nM | > 25 µM | 8.95 | > 25 | 6.91 µM | > 25 µM | > 17.3 | > 25 | 11 µM | > 25 µM | > 21.5 µM | > 25 µM | > 22.4 µM | > 25 µM | > 9.93 µM | > 18.8 µM |
| O=C(O)CCC(=O)c1ccc2sc3ccccc3c2c1 |  | > 100 |  | > 100 µM |  | > 100 µM |  | > 100 |  | > 100 µM |  | > 100 |  | > 100 µM |  | > 100 µM |  | > 100 µM |  | > 100 µM |
| O=C(O)c1cccc(C(=O)O)c1S(=O)Cc1ccccc1 (stereo not given) |  | > 100 |  | > 100 µM |  | > 100 µM |  | > 100 |  | > 100 µM |  | > 100 |  | > 100 µM |  | > 100 µM |  | > 100 µM |  | > 100 µM |
| COc1ncnc(NS(=O)(=O)c2ccc(N=C3C(=O)N(CN4CCN(c5c(F)cc6c(=O)c(C(=O)O)cn(C7CC7)c6c5OC)CC4C)c4ccc(Br)cc43)cc2)c1OC (stereo not given) | 19.4 | > 50 | 7.07 µM | 33.2 µM | 42700 nM | > 50 µM | 3.99 | 19.5 | 12.1 µM | > 50 µM | 6.4 | 44.8 | 7.53 µM | 22.1 µM | 22.5 µM | > 50 µM | 10.8 µM | 39.9 µM | > 50 µM | > 50 µM |
| O=C(O)Cc1cccnc1 |  | > 100 |  | > 100 µM |  | > 100 µM |  | > 100 |  | > 100 µM |  | > 100 |  | > 100 µM |  | > 100 µM |  | > 100 µM |  | > 100 µM |
| COC(=O)CCCCC(=O)c1c(C)[nH]c(/C=C2\N=C(c3ccc[nH]3)C=C2OC)c1C | 1.53 | 3.16 | 0.328 µM | 1.22 µM | 29 nM | 0.313 µM | 3.03 | 10.1 | 1.02 µM | 3.05 µM | 1.14 | 2.61 | 1.15 µM | 2.47 µM | 1 µM | 2.32 µM | 1.64 µM | 3.29 µM | 0.851 µM | 2.24 µM |
| Cc1cccc2c3c(sc12)C(c1ccc(Cl)cc1)C(C#N)=C(N)O3 (stereo not given) | 0.452 | 12.6 | 0.182 µM | 0.42 µM | 452 nM | > 33.9 µM | 0.37 | 3.92 | 0.274 µM | 1.48 µM | 0.57 | 17.8 | 0.299 µM | 1.14 µM | 0.834 µM | 14.1 µM | 0.435 µM | 4.52 µM | 0.214 µM | 0.71 µM |
| COc1cc(/C=C/C(=O)c2cccc(-n3cc(-c4ccc(Cl)cc4)[nH]c3=O)c2)cc(OC)c1OC | 16.1 | 37 | 3.63 µM | > 100 µM | 3030 nM | > 100 µM | 3.74 | 11.8 | 5.96 µM | > 100 µM | 23.9 | > 100 | 3.49 µM | 14.3 µM | 7.17 µM | 19.5 µM | 7.38 µM | 20.2 µM | 20.5 µM | > 100 µM |
| COc1ccc(N(CC(=O)NCCC[Te]c2ccccc2)C(=O)CNC(=O)OC(C)(C)C)cc1 | 0.875 | 9.64 | 3.31 µM | 13.5 µM | 1660 nM | 7.75 µM | 0.45 | 1.85 | 2.77 µM | 7.31 µM | 0.343 | 2.35 | 2.14 µM | 4.84 µM | 3.12 µM | 8.86 µM | 2.01 µM | 3.83 µM | 2.07 µM | 7.43 µM |
| O=C(CC1(O)C(=O)N(Cc2ccccc2)c2ccccc21)c1ccc(C(=O)NCC2CCC3(CC2)OOC2(CCCCC2)OO3)cc1 (stereo not given) | 4.67 | 51.8 | 0.875 µM | 2.45 µM | 344 nM | 1.66 µM | 1.29 | 3.51 | 2.76 µM | 7.81 µM | 0.659 | 2.04 | 0.399 µM | 1.04 µM | 0.195 µM | 0.399 µM | 1.93 µM | 4.51 µM | 1.58 µM | 3.44 µM |
| O=C(/C=C/c1cccc(O)c1)c1cccc(-n2cc(-c3ccccc3)[nH]c2=O)c1 | 6.58 | 18.6 | 2.53 µM | 9.64 µM | 1510 nM | > 20.1 µM | 2.84 | 7.4 | 5.7 µM | 44.6 µM | 7.18 | 23 | 1.97 µM | 3.84 µM | 2.72 µM | 7.4 µM | 1.96 µM | 3.85 µM | 5.7 µM | 18.2 µM |
| O=C1OC(C(O)CO)C(O)=C1O (stereo not given) | > 10000 | > 10000 | 203 µM and 208 µM | 372 µM and 374 µM | 349000 nM and 292000 nM | 877 µM and 924 µM | > 10000 | > 10000 | 2990 µM and > 10000 µM | 7960 µM and > 10000 µM | 2420 | 4390 | 1900 µM and 1390 µM | 3360 µM and 1830 µM | 1540 µM and 1610 µM | 2940 µM and 3060 µM | 2030 µM and 1830 µM | 3750 µM and 3420 µM | 2460 µM and > 4760 µM | 4050 µM and > 6140 µM |
| CCC1(O)C(=O)OCc2c1cc1n(c2=O)Cc2cc3c(NC(=O)CN)cccc3nc2-1 (stereo not given) | 0.492 | > 100 | 5.4 µM | > 70 µM | 26.2 nM | 0.183 µM | 0.122 | 3.88 | 28.9 µM | > 100 µM | 19.7 | > 88.2 | 0.11 µM | 0.821 µM | 0.187 µM | 2.71 µM | 5 µM | 46.6 µM | 0.346 µM | 5.14 µM |
| COC1C(O)C(CO)OC(OC2C(O)COC(OC3C(C)OC(OC4C(O[C@H]5CC[C@@]6(C)C(CC=C7[C@H]6CCC68C(=O)O[C@@](C)(CCCC(C)C)[C@H]6[C@@H](OC(C)=O)C[C@@]78C)C5(C)C)OCC(OS(=O)(=O)O)C4O)C(OC4OCC(O)C(O)C4O)C3O)C2O)C1O (stereo not given in full) | 0.149 | 0.374 | 0.196 µM | 0.532 µM | 62.8 nM | 0.238 µM | 0.315 | 1.45 | 0.245 µM | 0.598 µM | 0.101 | 0.565 | 0.215 µM | 0.606 µM | 0.149 µM | 0.298 µM | 0.0738 µM | 0.286 µM | 0.214 µM | 0.465 µM |
| COC1=C(OC)C(=O)C(SC/C=C(\C)CCCC(C)CCCC(C)CCCC(C)C)=CC1=O (stereo not given) | 1.5 | > 100 | 0.845 µM | > 38.7 µM | 1090 nM | > 100 µM | 0.95 | > 32.7 | 0.709 µM | > 48.4 µM | 1.11 | > 37.7 | 1.41 µM | > 92.2 µM | 2.04 µM | > 100 µM | 8.49 µM | > 100 µM | 0.972 µM | > 26.1 µM |
| Nc1nc(Nc2ccccc2SSc2ccccc2Nc2nc(N)nc(C(Cl)(Cl)Cl)n2)nc(C(Cl)(Cl)Cl)n1 | 4.41 | 17.8 | 6.39 µM | 24.9 µM | 1630 nM | 3.76 µM | 4 | 14.7 | 5.44 µM | > 100 µM | 5.8 | 20.4 | 11.2 µM | 24.7 µM | 1.7 µM | 3.2 µM | 17.6 µM | 34.9 µM | 2.94 µM | 22.3 µM |
